Test results as given in patent publication EP1038880B1, “Androstanes and pregnanes for allosteric modulation of GABA receptor” (priority 1994, dated 1995).

Target: GR complex
Test: [35S]TBPS binding assay (inhibition of [35S]TBPS binding, cerebral cortex P2 homogenate)
Parameters: species or system rat
Conditions: for IC50: 2 nM [35S]TBPS, rat cerebral cortex P2 homogenate; for IMAX: maximum inhibition of [35S]TBPS binding
Procedure: We performed several experiments to determine the nature of the modulation of [^35S]TBPS as affected by the compounds of the invention.
These procedures were performed as follows:
Brains from male Sprague-Dawley rats were removed immediately following sacrifice and the cerebral cortices dissected over ice. […] Briefly, the cortices were gently homogenized in 0.32 M sucrose followed by centrifugation at 1000 x g for 10 minutes. The supernatant was collected and centrifuged at 9000 x g for 20 minutes. The resultant P2 pellet was suspended as a 10% (original wet weight/volume) suspension in 50 mM Na/K phosphate buffer (pH 7.4) 200 mM NaCl to form the homogenate.
One hundred microliter […] aliquots of the P2 homogenate (0.5 milligrams (mg) protein) were incubated with 2 nanomolar (nM) [^35S]TBPS (70-110 curies/millimole; New England Nuclear, Boston, MA) in the presence or absence of the naturally occurring steroids or their synthetic derivatives to be tested. The tested compounds were dissolved in dimethylsulfoxide (Baker Chem. Co., Phillipsbury, NJ) and added to the incubation mixture in 5 µL aliquots. The incubation mixture was brought to a final volume of 1 mL with buffer. Non-specific binding was defined as binding in the presence of […] TBPS. The effect and specificity of GABA (Sigma Chem. Co., St. Louis, MO) was evaluated by performing all assays in the presence of GABA plus (+)bicuculline (Sigma Chem. Co.). maintained at 25°C for 90 minutes (steady state conditions) were terminated by rapid filtration through glass fiber filters (No. 32, Schleicher and Schuell, Keene, NH). Filter-bound radioactivity was quantitated by liquid scintillation spectrophotometry.
Various compounds were screened to determine their potential as modulators of [^35S]TBPS binding in vitro. These assays were performed in accordance with the above discussed procedures. […] It is an indication of a compound's in vitro potency. Maximum inhibition is an indication of a compound's in vitro efficacy.

Compound	IC50	IMAX
CC(=O)c1ccc(C#CC2(O)CCC3C(CCC4C3CCC3(C)C(C(C)=O)CCC43)C2)cc1 (stereo not drawn) [3β-(4'-Acetylphenyl)ethynyl-3α-hydroxy-19-nor-20-one]	14 nM	103%
COc1ccc(CC[C@@]2(O)CC[C@@]3(C)[C@H](CC[C@@H]4[C@@H]3CC[C@]3(C)[C@@H](C(C)=O)CC[C@@H]43)C2)cc1OC [3β-(3',4'-Dimethoxyphenylethyl)-3α-hydroxy-5β-pregnan-20-one]	507 nM	66%
CC1(O)CCC2(C)C(CCC3C2CCC2(C)C(C(=O)Cn4nccn4)CCC32)C1 (stereo not drawn) [3α-hydroxy-3β-methyl-21(2'H-1',2',3'-triazol-2'-yl)-5α-pregnan-20-one]	85 nM	99%
CC(=O)[C@H]1CC[C@H]2[C@@H]3CC[C@@H]4C[C@@](O)(C#CCN(C)C)CC[C@]4(C)[C@H]3CC[C@]12C [3β-[3'-(N,N-dimethylamino)-1'-propynyl]-3α-hydroxy-5β-pregnan-20-one]	1420 nM	100%
C[C@@]1(O)CC[C@@]2(C)[C@@H](CC[C@@H]3[C@@H]2CC[C@]2(C)[C@@H](C(=O)Cn4ccnn4)CC[C@@H]32)C1 [3α-hydroxy-3β-methyl-21-(1',2',3'-triazol-1'-yl)-5α-pregnan-20-one]	136 nM	99%
CC(=O)[C@H]1CC[C@H]2[C@@H]3CC[C@@H]4C[C@@](O)(c5ccccc5)CC[C@]4(C)[C@H]3CC[C@]12C [3α-Hydroxy-3β-phenyl-5β-pregnan-20-one, 3α-hydroxy-3β-phenyl-5β-pregnan-20-one]	382 nM	86%
C[C@]12CC[C@@H](O)C[C@H]1CC[C@@H]1[C@@H]2CC[C@]2(C)[C@@H](C(=O)Cn3cnc4ncncc43)CC[C@@H]12 [3α-hydroxy-21-(7'H-purin-7'-yl)-5β-pregnan-20-one]	430 nM	71%
C[C@]12CC[C@@H](O)C[C@H]1CC[C@@H]1[C@@H]2CC[C@]2(C)[C@@H](C(=O)Cn3cnnn3)CC[C@@H]12 [3α-hydroxy-21-(1'H-1,2,3,4-tetrazol-1'-yl)-5β-pregnan-20-one]	227 nM	60%
C[C@]12CC[C@@H](O)C[C@H]1CC[C@@H]1[C@@H]2CC[C@]2(C)[C@@H](C(=O)Cn3cnc4cncnc43)CC[C@@H]12 [3α-hydroxy-21-(9'H-purin-9'-yl-5β-pregnan-20-one]	69 nM	59%
CC(=O)[C@H]1CC[C@H]2[C@@H]3CC[C@@H]4C[C@@](O)(Cc5ccccc5)CC[C@]4(C)[C@H]3CC[C@]12C [3β-Benzyl-3α-hydroxy-5β-pregnan-20-one, 3α-hydroxy-3β-benzyl-5β-pregnan-20-one]	109 nM	102%
CC12CCC(O)CC1CCC1C2CCC2(C)C(C(=O)Cn3cnc4ccccc43)CCC12 (stereo not drawn) [3α-hydroxy-21-(1'-benzimidazolyl)5β-pregnan-20-one]	53 nM	100%
CC(=O)c1ccc(C#CC2(O)CCC3C(CCC4C3CCC3(C)C(C(C)=O)CCC43)C2)cc1 (stereo not drawn) [3β-(4'-Acetylphenyl)ethynyl-3α-hydroxy-5β-19-norpregnan-20-o] [3β-(4'-Acetylphenylethynyl)-3α-hydroxy-19-nor-5β-pregnan-20-one]	6 nM	90%
CC(=O)[C@H]1CC[C@H]2[C@@H]3CC[C@@H]4C[C@@](O)(C#Cc5ccc(C(N)=O)cc5)CC[C@]4(C)[C@H]3CC[C@]12C [3β-(4'-Carboxamidopheny)ethynyl-3α-hydroxy-5β-pregnan-20-one]	2240 nM	98%
CC(=O)C1CCC2C3CCC4CC(O)(C#Cc5ccc(O)cc5)CCC4(C)C3CCC12C (stereo not drawn) [3β-(4'-Hydroxyphenylethynyl)-3α-hydroxy-5β-pregnan-20-one]	1550 nM	88%
CC(=O)C#C[C@@]1(O)CC[C@@]2(C)[C@H](CC[C@@H]3[C@@H]2CC[C@]2(C)[C@@H](C(C)=O)CC[C@@H]32)C1 [3α-Hydroxy-3β-(3'-oxobutynyl)-5β-pregnan-20-one]	2690 nM	107%
C[C@]12CC[C@H]3[C@@H](CC[C@@H]4C[C@@](O)(C#CCCO)CC[C@@H]43)[C@@H]1CC[C@@H]2C(=O)Cn1ccnn1 [3α-hydroxy-3β-(4-hydroxybutyn-1-yl)-21-(1H-1,2,3-triazol-1-yl)-5β-19-norpregnan-20-one]	124 nM	95%
CC(=O)[C@H]1CC[C@H]2[C@@H]3CC[C@@H]4C[C@@](O)(C#Cc5cccnc5)CC[C@]4(C)[C@H]3CC[C@]12C [3α-Hydroxy-3β-(3-pyridyl)ethynyl-5β-pregnan-20-one]	138 nM	100%

Compound	IC50	IMAX
CC12CCC(O)(C#CCO)CC1CCC1C2CCC2(C)C(C(=O)Cn3ccnn3)CCC12 (stereo not drawn) [3α-hydroxy-3β-(3-hydroxypropyn-1-yl)-21-(1,2,3-triazol-1-yl)-5β-pregnan-20-one]	1090 nM	101%
CC(=O)[C@H]1CC[C@H]2[C@@H]3CC[C@@H]4C[C@@](O)(C#Cc5ccc(N(C)C)cc5)CC[C@]4(C)[C@H]3CC[C@]12C [3β-(4'-dimethylaminophenyl)ethynyl-3α-hydroxy-5β-pregnan-20-one]	28 nM	77%
3β-(4'-Aminophenyl)ethynyl-3β-hydroxy-5β-20-one	22500 nM	103%
C[C@]12CC[C@@H](O)C[C@H]1CC[C@@H]1[C@@H]2CC[C@]2(C)[C@@H](C(=O)Cn3ccnc3)CC[C@@H]12 [3α-Hydroxy-21-(1'-imidazolyl)-5β-pregnan-20-one]	73 nM	57%
CCOC(=O)c1ccc(C#C[C@@]2(O)CC[C@@]3(C)[C@H](CC[C@@H]4[C@@H]3CC[C@]3(C)[C@@H](C(C)=O)CC[C@@H]43)C2)cc1 [3α-hydroxy-3β-(4'-carboxyphenylethynyl)-5β-pregnan-20-one ethyl ester]	–	98%
C[C@]12CC[C@](O)(C#CCCO)C[C@H]1CC[C@@H]1[C@@H]2CC[C@]2(C)[C@@H](C(=O)Cn3ccnn3)CC[C@@H]12 [3α-hydroxy-3β-(4-hydroxybutyn-1-yl)-21-(1,2,3-triazol-1-yl)-5β-pregnan-20-one]	79 nM	96%
CC(=O)c1ccc(C#C[C@@]2(O)CC[C@@]3(C)[C@@H](CC[C@@H]4[C@@H]3CC[C@]3(C)[C@@H](C(C)=O)CC[C@@H]43)C2)cc1 [3β-(4'-Acetylphenylethynyl)-3α-hydroxy-5α-pregnan-20-one]	5 nM	93%
CCOC(=O)c1ccc(C#CC2(O)CCC3(C)C(CCC4C3CCC3(C)C(C(C)=O)CCC43)C2)cc1 (stereo not drawn) [3β-(4'-Carboxyphenylethynyl)-3α-hydroxy-5α-pregnan-20-one ethyl ester]	7 nM	79%
CC(=O)[C@H]1CC[C@H]2[C@@H]3CC[C@H]4C[C@@](O)(C#CCC(C)O)CC[C@]4(C)[C@H]3CC[C@]12C (mixture of isomers) [3β-[4'(R/S)-hydroxy-1'-pentynyl]-3α-hydroxy-5α-pregnan-20-one]	178 nM	101%
CC(=O)C1CCC2C3CCC4CC(O)(C#CC=O)CCC4(C)C3CCC12C (stereo not drawn) [3α-Hydroxy-3β-(3'-oxopropynyl)-5β-pregnan-20-one]	1720 nM	76%
COCC#C[C@@]1(O)CC[C@@]2(C)[C@H](CC[C@@H]3[C@@H]2CC[C@]2(C)[C@@H](C(C)=O)CC[C@@H]32)C1 [3α-Hydroxy-3β-(3-methoxy-1-propynyl)-5β-pregnan-20-one]	–	105%
CCOC(=O)c1ccc(C#CC2(O)CCC3C(CCC4C3CCC3(C)C(C(C)=O)CCC43)C2)cc1 (stereo not drawn) [3β-(4'-Carboxyphenylethynyl)-3α-hydroxy-19-nor-5β-pregnan-20-one ethyl ester]	15 nM	94%
CC12CC(N3CCOCC3)C(O)CC1CCC1C2CCC2(C)C(C(=O)Cn3cncn3)CCC12 (stereo not drawn) [3α-Hydroxy-2β-morpholinyl-21-[1'2'4'-triazolyl)]-5α-pregnan-20-one]	1550 nM	97%
CCN(CC)C(=O)c1ccc(C#CC2(O)CCC3(C)C(CCC4C3CCC3(C)C(C(C)=O)CCC43)C2)cc1 (stereo not drawn) [3β-[4'-(N,N-diethylcarboxamido)phenyl]ethynyl-3α-hydroxy-5β-pregnan-20-one]	87 nM	94%
C[C@]12CC[C@](O)(C#CCCO)C[C@H]1CC[C@@H]1[C@@H]2CC[C@]2(C)[C@@H](C(=O)Cn3cnnn3)CC[C@@H]12 [3α-hydroxy-3β-(4-hydroxybutyn-1-yl)-21-(tetrazol-1-yl)-5β-pregnan-20-one]	93 nM	101%
CC(=O)[C@H]1CC[C@H]2[C@@H]3CC[C@@H]4C[C@@](O)(CCCc5ccccc5)CC[C@]4(C)[C@H]3CC[C@]12C [3α-Hydroxy-3β-(3'-phenylpropyl)-5β-pregnan-20-one]	173 nM	92%
